Results as given in paper PMC12114952, “Design, Synthesis, Anticancer Evaluation and Molecular Docking of Pyrimidine, Pyrido[4,3-d]pyrimidine and 5,6,7,8-Tetrahydropyrido[3,4-d]pyrimidine Derivatives as Novel KRAS-G12D Inhibitors and PROTACs” (Pharmaceuticals, 2025).
Where two headings read alike, the source gives them in different places.

What was measured:
[1] = tested on: tumor; set-up: method as in PMID 38197882; settings: subcutaneous administration once a day for 22 days; cited from earlier work
[2] = tested on: AGS; settings: Figure 1; cited from earlier work
[3] = tested on: AsPc-1; settings: Figure 1, cited from earlier work
[4] = tested on: Panc1 (G12D); test: CCK-8 cell proliferation assay, Panc1 cells; assay type: cell-based, human; settings: for IC50: Homo sapiens, PANC-1, Panc1 cells, KRAS-G12D, CCK-8; for selectivity index (SI): Panc1 (G12D) over wild-type cells, fold
Excerpt: (§1) It has been reported that Panc1 is a KRAS-G12D-mutated human pancreatic cell and that A549 is a KRAS WT cell; meanwhile, HCT116 cells carry the KRAS-G13D mutation. Therefore, we used these cell lines to analyze the compounds’ anticancer activity and selectivity.

[5] = tested on: HCT116 (G13D); test: CCK-8 cell proliferation assay, HCT116 cells; assay type: cell-based; settings: Homo sapiens, HCT-116, KRAS-G13D
Excerpt: as §1

[6] = tested on: A549 (WT); test: CCK-8 cell proliferation assay, A549 cells; assay type: cell-based; settings: Homo sapiens, KRAS wild-type
Excerpt: as §1

[7] = tested on: AGS (G12D); test: CCK-8 cell proliferation assay, AGS cells; assay type: cell-based; settings: Homo sapiens, KRAS-G12D, antiproliferative
Protocol: as §1
(§2) After we obtained 26a and 26b, cell proliferation experiments were conducted using cell lines carrying KRAS-G12D mutations, and the results are shown in Table 2. […] In the future, more types of linkers can be designed to adjust the lipophilic–hydrophilic balance coefficient of the molecule to optimize its membrane permeability and protein degradation ability. In addition, it should be acknowledged that only two cancer cell lines were selected for testing in this experiment, which is insufficient to comprehensively evaluate these PROTACs. This is also one of the limitations of this experiment.

[8] = biological target: KRAS-G12D (Homo sapiens, UniProt P01116, G12D); test: KRAS-G12D enzyme inhibition assay (GTPase activity assay)
Sequence of KRAS-G12D (P01116 1-188 isoform P01116-2 G12D): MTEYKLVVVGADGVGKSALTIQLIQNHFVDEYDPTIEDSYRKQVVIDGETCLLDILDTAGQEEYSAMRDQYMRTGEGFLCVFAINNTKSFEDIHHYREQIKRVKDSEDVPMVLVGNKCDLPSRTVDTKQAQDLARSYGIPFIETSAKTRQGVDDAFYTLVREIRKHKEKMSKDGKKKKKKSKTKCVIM

[9] = tested on: ASPC-1; test: Cell proliferation assay, ASPC-1 cells; assay type: cell-based; settings: Homo sapiens, ASPC1, KRAS-G12D, antiproliferative
Protocol: as §2

[10] = tested on: Panc-1; settings: Figure 1; cited from earlier work
[11] = tested on: CT26; set-up: method as in PMID 35276423; settings: Figure 1; cited from earlier work
[12] = tested on: Panc 04.03; settings: Figure 1; cited from earlier work
[13] = tested on: KC; set-up: method as in PMID 35075146; settings: Figure 1; cited from earlier work
[14] = KRAS-G12D inhibition IC50, enzymatic inhibition

Row | IC50 [4] [µM] | IC50 [5] [µM] | IC50 [6] [µM] | Structure (SMILES) | other results
1 | – | – | – | CCc1c(F)ccc2cc(O)cc(-c3ncc4c(N5CC6CCC(C5)N6)nc(OC[C@@H]5CCCN5CCCCOCC(=O)N[C@H](C(=O)N5C[C@H](O)C[C@H]5C(=O)N[C@@H](C)c5ccc(-c6scnc6C)cc5)C(C)(C)C)nc4c3F)c12 [Compound 8o] | tumor inhibition rate [1]: 68.6%; IC50 [2]: 31 nM; IC50 [3]: 60 nM
2 | 6.17 ± 0.2 | 12.6 ± 1.01 | > 20 | CN1CCCN(c2nc3c(c(N4CC(N)C4)n2)CCN(C(=O)c2ccc(F)c4ccccc24)C3)CC1 [Compound 10a, (4-(3-Aminoazetidin-1-yl)-2-(4-methyl-1,4-diazepan-1-yl)-5,8-dihydropyrido[3,4-d]pyrimidin-7(6H)-yl)(4-fluoronaphthalen-1-yl)methanone] | –
3 | 5.87 ± 0.37 | 11.2 ± 0.94 | 7.89 ± 0.17 | CN1CCCN(c2nc3c(c(N4CCNCC4)n2)CCN(C(=O)c2ccc(F)c4ccccc24)C3)CC1 [Compound 10b, (4-Fluoronaphthalen-1-yl)(2-(4-methyl-1,4-diazepan-1-yl)-4-(piperazin-1-yl)-5,8-dihydropyrido[3,4-d]pyrimidin-7(6H)-yl)methanone] | –
4 | > 20 | > 20 | 7.48 ± 0.19 | CN1CCCN(c2nc3c(c(N4CCNCC4CO)n2)CCN(C(=O)c2ccc(F)c4ccccc24)C3)CC1 (centres unmarked) [Compound 10d, (4-Fluoronaphthalen-1-yl)(4-(2-(hydroxymethyl)piperazin-1-yl)-2-(4-methyl-1,4-diazepan-1-yl)-5,8-dihydropyrido[3,4-d]pyrimidin-7(6H)-yl)methanone] | –
5 | > 20 | 11.9 ± 1.59 | 12.8 ± 1.84 | CN1CCCN(c2nc3c(c(N4CCNCC4(C)C)n2)CCN(C(=O)c2ccc(F)c4ccccc24)C3)CC1 [Compound 10e, (4-(2,2-Dimethylpiperazin-1-yl)-2-(4-methyl-1,4-diazepan-1-yl)-5,8-dihydropyrido[3,4-d]pyrimidin-7(6H)-yl)(4-fluoronaphthalen-1-yl)methanone] | –
6 | 3.48 ± 0.22 | 10.1 ± 0.31 | > 20 | CN1CCCN(c2nc3c(c(N4CCCN(C)CC4)n2)CCN(C(=O)c2ccc(F)c4ccccc24)C3)CC1 [Compound 10f, (2,4-Bis(4-methyl-1,4-diazepan-1-yl)-5,8-dihydropyrido[3,4-d]pyrimidin-7(6H)-yl)(4-fluoronaphthalen-1-yl)methanone] | selectivity index (SI) [4]: 5.7
7 | 5.1 ± 0.32 | 7.12 ± 0.45 | 12.9 ± 0.38 | O=C(c1ccc(F)c2ccccc12)N1CCc2c(nc(N3CCN4CCC3CC4)nc2N2CCN3CCC2CC3)C1 [Compound 10g, (2,4-Di(1,4-diazabicyclo[3.2.2]nonan-4-yl)-5,8-dihydropyrido[3,4-d]pyrimidin-7(6H)-yl)(4-fluoronaphthalen-1-yl)methanone] | –
8 | > 20 | > 20 | > 20 | CN1CCCN(c2nc3c(c(N4CCNCC4CO)n2)CCN(Cc2ccccc2)C3)CC1 (centres unmarked) [Compound 10h, (1-(7-Benzyl-2-(4-methyl-1,4-diazepan-1-yl)-5,6,7,8-tetrahydropyrido [3,4-d]pyrimidin-4-yl)piperazin-2-yl)methanol] | –
9 | 5.96 ± 0.64 | 14.5 ± 1.22 | > 20 | CCN1CCC[C@H]1CNc1nc(NC(=O)c2cccc3ccccc23)cc(N2CCNCC2)n1 [Compound 10j, (S)-N-(2-(((1-Ethylpyrrolidin-2-yl)methyl)amino)-6-(piperazin-1-yl)pyrimidin-4-yl)-1-naphthamide] | –
10 | – | – | – | C#Cc1c(F)ccc2cc(O)cc(-c3ncc4c(N5C[C@H]6CC[C@@H](C5)N6)nc(N5CCCN(CCOCCNc6cccc7c6C(=O)N(C6CCC(=O)NC6=O)C7=O)CC5)nc4c3F)c12 (stereo partly drawn) [Compound 26a, 4-((2-(2-(4-(4-((1R,5S)-3,8-Diazabicyclo[3.2.1]octan-3-yl)-7-(8-ethynyl-7-fluoro-3-hydroxynaphthalen-1-yl)-8-fluoropyrido[4,3-d]pyrimidin-2-yl)-1,4-diazepan-1-yl)ethoxy)ethyl)amino)-2-(2,6-dioxopiperidin-3-yl)isoindoline-1,3-dione] | IC50 [7]: ~3 µM; IC50 [9]: > 10 µM
11 | – | – | – | C#Cc1c(F)ccc2cc(O)cc(-c3ncc4c(N5C[C@H]6CC[C@@H](C5)N6)nc(N5CCCN(CCCCCC(=O)N[C@H](C(=O)N6C[C@H](O)C[C@H]6C(=O)N[C@@H](C)c6ccc(-c7scnc7C)cc6)C(C)(C)C)CC5)nc4c3F)c12 [Compound 26b, (2S,4R)-1-((S)-2-(6-(4-(4-((1R,5S)-3,8-Diazabicyclo[3.2.1]octan-3-yl)-7-(8-ethynyl-7-fluoro-3-hydroxynaphthalen-1-yl)-8-fluoropyrido[4,3-d]pyrimidin-2-yl)-1,4-diazepan-1-yl)hexanamido)-3,3-dimethylbutanoyl)-4-hydroxy-N-((S)-1-(4-(4-methylthiazol-5-yl)phenyl)ethyl)pyrrolidine-2-carboxamide] | IC50 [9]: 5.09 ± 0.89 µM
12 | – | – | – | N#Cc1c(N)sc2c(F)ccc(-c3c(C(F)(F)F)cc4c(N5CC6CCC(C5)N6)nc(OC[C@@]56CCCN5C[C@H](F)C6)nc4c3F)c12 [ERAS-5024] | IC50 ([3]; 3D, CTG): 4 nM
13 | – | – | – | COc1cccc(C(F)(F)F)c1-c1cc2c(N3CC4CCC(C3)N4)ncnc2s1 [KD-8] | IC50 [10]: 2300 nM; IC50 [11]: 2000 nM
14 | 0.39 ± 0.05 | 12.6 ± 0.47 | 12.7 ± 0.98 | C#Cc1c(F)ccc2cc(O)cc(-c3ncc4c(N5CC6CCC(C5)N6)nc(OC[C@@]56CCCN5C[C@H](F)C6)nc4c3F)c12 [MRTX1133, reference compound] | IC50 [7]: 1.46 ± 0.18 µM; IC50 [9]: < 0.1 µM; tumor inhibition rate [1]: 89.1%; IC50 [2]: 6 nM; IC50 [12]: 10 nM
15 | – | – | – | Cc1cccc2cccc(N3CCc4c(nc(OC[C@@H]5CCCN5C)nc4N4CC5CCC(C4)N5)C3)c12 [TH-Z835] | IC50 [10]: < 2000 nM; IC50 [13]: < 500 nM

Row | Structure (SMILES) | IC50 [4] [µM] | IC50 [5] [µM] | IC50 [6] [µM] | other results
16 | CN1CCCN(c2nc3c(c(N4[C@@H]5CC[C@H]4CNC5)n2)CCN(C(=O)c2ccc(F)c4ccccc24)C3)CC1 [Compound 10c, (4-((1R,5S)-3,8-Diazabicyclo[3.2.1]octan-8-yl)-2-(4-methyl-1,4-diazepan-1-yl)-5,8-dihydropyrido[3,4-d]pyrimidin-7(6H)-yl)(4-fluoronaphthalen-1-yl)methanone] | 1.4 ± 0.19 | 5.13 ± 0.4 | 6.88 ± 0.19 | IC50 [7]: 3.4 ± 0.25 µM; selectivity index (SI) [4]: 4.9; IC50 [8, 14]: > 10000 nM
17 | Cc1cccc2cccc(N3CCc4c(nc(N5CCCN(C)CC5)nc4N4C[C@H]5CC[C@@H](C4)N5)C3)c12 [Compound 10i, 4-((1R,5S)-3,8-Diazabicyclo[3.2.1]octan-3-yl)-2-(4-methyl-1,4-diazepan-1-yl)-7-(8-methylnaphthalen-1-yl)-5,6,7,8-tetrahydropyrido[3,4-d]pyrimidine] | 3.92 ± 0.58 | 4.51 ± 0.21 | 5.5 ± 1.35 | –
18 | C#Cc1c(F)ccc2cc(O)cc(-c3ncc4c(N5C[C@H]6CC[C@@H](C5)N6)nc(N5CCCN(C)CC5)nc4c3F)c12 [Compound 10k, 4-(4-((1R,5S)-3,8-Diazabicyclo[3.2.1]octan-3-yl)-8-fluoro-2-(4-methyl-1,4-diazepan-1-yl)pyrido[4,3-d]pyrimidin-7-yl)-5-ethynyl-6-fluoronaphthalen-2-ol] | 11.5 ± 0.41 | 7.87 ± 0.16 | 14.2 ± 2.15 | IC50 [7]: 2.22 ± 0.53 µM; IC50 [8, 14]: 9 nM; IC50 ([8]; KRAS-G12D inhibitory activity IC50 (nM), Table S1): 9.3 nM
